# Patent US20020160988A1 (priority 2001, published 2002)
# Like-named read-outs stand apart in the source and are kept apart here.
# What was measured:
# [1] = tested on: whole blood ChE; set-up: species or system mice; conditions: mouse, in vivo, 0.13 mg/kg
# [2] = molecular target: T1, human plasma butyrylcholinesterase (HuBChE) (Homo sapiens, UniProt P06276); conditions: for t½(ks): human, plasma
# [3] = molecular target: T2, fetal bovine serum-AChE (FBS-AChE) (Bos taurus, UniProt P23795); conditions: for t½(ks): bovine, serum
# T2 sequence (P23795 31-613): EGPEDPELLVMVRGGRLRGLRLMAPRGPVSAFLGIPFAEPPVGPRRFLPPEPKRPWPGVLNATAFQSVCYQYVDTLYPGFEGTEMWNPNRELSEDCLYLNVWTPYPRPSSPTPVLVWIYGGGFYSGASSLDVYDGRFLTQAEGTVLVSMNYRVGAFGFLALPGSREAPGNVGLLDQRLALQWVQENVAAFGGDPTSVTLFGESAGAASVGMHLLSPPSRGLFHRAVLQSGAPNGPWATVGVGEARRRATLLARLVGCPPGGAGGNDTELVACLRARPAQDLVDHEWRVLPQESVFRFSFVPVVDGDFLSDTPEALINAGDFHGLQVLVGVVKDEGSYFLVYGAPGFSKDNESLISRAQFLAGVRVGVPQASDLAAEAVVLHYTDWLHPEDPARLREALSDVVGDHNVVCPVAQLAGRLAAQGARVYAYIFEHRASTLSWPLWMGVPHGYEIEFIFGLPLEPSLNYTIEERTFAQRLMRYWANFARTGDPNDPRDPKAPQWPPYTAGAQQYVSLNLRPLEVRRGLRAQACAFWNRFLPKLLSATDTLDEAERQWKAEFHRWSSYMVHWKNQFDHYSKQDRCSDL
# [4] = molecular target: T3, recombinant human acetylcholineesterase (rHuAChE) (Homo sapiens, UniProt P22303); conditions: for t½(ks): human, recombinant enzyme
# [5] = molecular target: T2, fetal bovine serum-AChE (FBS-AChE); experiment: biochemical
# [6] = in vivo; conditions: mouse
# [7] = tested on: mice; conditions: mouse, in vivo
# [8] = molecular target: T3, recombinant human acetylcholineesterase (rHuAChE); experiment: biochemical
# [9] = tested on: carrageenan-induced rat paw edema; conditions: in vivo
# [10] = physchem; conditions: pH 7.4
# [11] = molecular target: T1, human plasma butyrylcholinesterase (HuBChE); experiment: biochemical
# [12] = tested on: CAR-induced brain edema; set-up: species or system rats; conditions: rat, in vivo
# [13] = tested on: mice; conditions: mouse, in vivo; remark: listed apart in the source
# [14] = molecular target: COX II (sheep placenta) (Ovis aries, UniProt P79208); experiment: biochemical; conditions: read-out: % Inhibition COX II
# [15] = molecular target: COX I (bovine seminal vesicles) (Bos taurus, UniProt O62664); experiment: biochemical; conditions: read-out: % Inhibition COX I
# COX I (bovine seminal vesicles), sequence (O62664 25-600): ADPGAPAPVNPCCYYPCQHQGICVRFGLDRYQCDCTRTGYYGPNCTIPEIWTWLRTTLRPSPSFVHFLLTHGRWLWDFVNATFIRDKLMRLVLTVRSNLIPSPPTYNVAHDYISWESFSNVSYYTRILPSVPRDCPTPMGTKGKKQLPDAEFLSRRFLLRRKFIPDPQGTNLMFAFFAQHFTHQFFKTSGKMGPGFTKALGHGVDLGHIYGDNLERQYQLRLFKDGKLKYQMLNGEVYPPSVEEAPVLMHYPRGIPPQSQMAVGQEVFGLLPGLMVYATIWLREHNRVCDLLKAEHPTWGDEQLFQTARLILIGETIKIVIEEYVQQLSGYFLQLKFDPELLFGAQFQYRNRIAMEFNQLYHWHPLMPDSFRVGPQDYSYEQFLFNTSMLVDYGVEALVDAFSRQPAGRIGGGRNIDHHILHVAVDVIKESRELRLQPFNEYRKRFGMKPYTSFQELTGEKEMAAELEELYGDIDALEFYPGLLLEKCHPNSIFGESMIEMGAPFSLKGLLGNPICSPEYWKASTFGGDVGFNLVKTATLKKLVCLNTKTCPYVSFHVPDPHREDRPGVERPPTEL
# T3 sequence (P22303 32-614): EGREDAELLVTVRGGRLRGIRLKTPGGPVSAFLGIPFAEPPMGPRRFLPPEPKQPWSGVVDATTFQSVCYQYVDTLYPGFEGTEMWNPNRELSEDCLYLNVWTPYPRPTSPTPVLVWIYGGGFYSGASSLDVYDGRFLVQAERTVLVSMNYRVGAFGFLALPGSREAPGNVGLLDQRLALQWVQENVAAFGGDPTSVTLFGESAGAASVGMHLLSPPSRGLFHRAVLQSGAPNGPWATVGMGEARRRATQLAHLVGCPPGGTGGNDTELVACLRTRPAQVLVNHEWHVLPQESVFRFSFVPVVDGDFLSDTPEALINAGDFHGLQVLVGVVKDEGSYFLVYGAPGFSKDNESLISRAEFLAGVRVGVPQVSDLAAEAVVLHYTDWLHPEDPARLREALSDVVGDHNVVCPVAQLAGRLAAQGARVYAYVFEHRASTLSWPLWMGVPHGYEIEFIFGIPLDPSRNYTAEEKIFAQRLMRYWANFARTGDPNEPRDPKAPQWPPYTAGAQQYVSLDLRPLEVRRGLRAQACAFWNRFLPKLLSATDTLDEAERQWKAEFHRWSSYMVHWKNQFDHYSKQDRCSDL
# T1 sequence (P06276 29-602): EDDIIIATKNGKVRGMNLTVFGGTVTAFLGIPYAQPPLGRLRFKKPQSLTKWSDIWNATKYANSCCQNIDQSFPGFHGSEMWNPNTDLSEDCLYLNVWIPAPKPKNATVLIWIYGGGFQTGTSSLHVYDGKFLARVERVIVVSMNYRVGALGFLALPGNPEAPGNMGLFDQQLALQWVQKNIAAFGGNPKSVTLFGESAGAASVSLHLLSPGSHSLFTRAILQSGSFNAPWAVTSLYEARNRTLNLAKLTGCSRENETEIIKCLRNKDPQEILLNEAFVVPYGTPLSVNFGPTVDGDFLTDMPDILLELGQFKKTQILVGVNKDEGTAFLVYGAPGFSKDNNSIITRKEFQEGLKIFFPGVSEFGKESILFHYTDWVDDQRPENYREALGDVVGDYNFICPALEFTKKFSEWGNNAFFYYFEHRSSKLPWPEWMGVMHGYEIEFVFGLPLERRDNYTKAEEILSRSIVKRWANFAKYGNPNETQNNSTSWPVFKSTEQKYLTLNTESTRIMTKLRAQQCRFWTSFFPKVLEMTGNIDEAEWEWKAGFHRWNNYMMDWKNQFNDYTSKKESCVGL
# COX II (sheep placenta), sequence (P79208 17-603): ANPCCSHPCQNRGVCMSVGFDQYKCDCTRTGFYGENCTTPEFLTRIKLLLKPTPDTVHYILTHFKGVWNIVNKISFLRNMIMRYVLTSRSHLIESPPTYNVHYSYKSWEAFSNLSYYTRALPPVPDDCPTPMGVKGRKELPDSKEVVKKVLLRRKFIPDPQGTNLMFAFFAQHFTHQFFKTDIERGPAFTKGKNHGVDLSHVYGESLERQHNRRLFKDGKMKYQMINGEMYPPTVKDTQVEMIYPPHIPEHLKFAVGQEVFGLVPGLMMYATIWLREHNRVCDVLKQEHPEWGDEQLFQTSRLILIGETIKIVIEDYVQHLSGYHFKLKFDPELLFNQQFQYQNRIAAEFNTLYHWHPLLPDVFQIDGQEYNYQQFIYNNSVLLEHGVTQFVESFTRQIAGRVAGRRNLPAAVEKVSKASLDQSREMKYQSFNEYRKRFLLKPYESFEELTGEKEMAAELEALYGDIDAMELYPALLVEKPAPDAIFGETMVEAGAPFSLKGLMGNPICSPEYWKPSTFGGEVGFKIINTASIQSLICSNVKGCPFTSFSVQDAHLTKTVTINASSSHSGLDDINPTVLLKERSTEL
molecule,measurement,setting,value
"CN(C)C(=O)Oc1ccc[n+](C)c1 [PYR, pyridostigmine]",ChE inhibition,[1],less than 20%
same,duration time of ChE inhibition,[1],1 to 1.5 h
same,K′,[2],0.08 min⁻¹
same,ki (bimolecular rate constant),[2],7.3 × 10^4 M^−1m^−1
same,ks × 10^3,[2],7.1 minutes^−1
same,t½(ks),[2],1.62 h
same,K′,[3],0.31 min⁻¹
same,ki (bimolecular rate constant),[3],2.5 × 10^5 M^−1m^−1
same,ks × 10^3,[3],10 minutes^−1
same,t½(ks),[3],1.15 h
same,K′,[4],0.40 min⁻¹
same,ki (bimolecular rate constant),[4],2.7 × 10^5 M^−1m^−1
same,ks × 10^3,[4],9.2 minutes^−1
same,t½(ks),[4],1.25 h
same,Ki,[5],1.2 µM
same,LD50,[6]; im,2.1 mg/kg
same,LD50,[6]; ip,5.1 mg/kg
CNC(=O)Oc1ccc2c(c1)[C@]1(C)CCN(C)[C@@H]1N2C [physostigmine],Therapeutic Index (TI = LD50/ED50),[7],3.4
"COC(=O)C1=CCCN(C)C1 [Arecoline, arecoline]",mode of AChE inhibition,[4],reversible inhibition of AChE
same,IC50,[8],> 100 µM
"COc1ccc2c(c1)c(CC(=O)O)c(C)n2C(=O)c1ccc(Cl)cc1 [INDO, indomethacin]",edema level (% EDEMA) after treatment,[9],about 30%
same,LD50,[6]; ip,12.4 mg/kg
Nc1c2c(nc3ccccc13)CCCC2 [TACRINE],Therapeutic Index (TI = LD50/ED50),[7],3.5
CCN(C)C(=O)Oc1cccc([C@H](C)N(C)C)c1 [EXELON],Therapeutic Index (TI = LD50/ED50),[7],12.5
CC(C)Cc1ccc(C(C)C(=O)OCCCCCCCCN2CCC=C(OC(=O)N(C)C)C2)cc1 (stereo not shown) [IBU-4H-PO],K′,[2],0.19 min⁻¹
same,ki (bimolecular rate constant),[2],1.2 × 10^5 M^−1m^−1
same,ks × 10^3,[2],0.9 minutes^−1
same,t½(ks),[2],13.2 h
same,K′,[3],1.9 min⁻¹
same,ki (bimolecular rate constant),[3],2.8 × 10^4 M^−1m^−1
same,ks × 10^3,[3],20 minutes^−1
same,t½(ks),[3],0.575 h
same,K′,[4],0.23 min⁻¹
same,ki (bimolecular rate constant),[4],1.9 × 10^4 M^−1m^−1
same,ks × 10^3,[4],6.9 minutes^−1
same,t½(ks),[4],1.67 h
same,logD,[10],2
same,Ki,[5],66 µM
same,Ki,[11],1.6 µM
same,LD50,[6]; ip,54.2 mg/kg
same,Ki,[8],12 µM
"CC(C)Cc1ccc(C(C)C(=O)O)cc1 (stereo not shown) [IBU, ibuprofen]",brain % water content,[12],83%
same,edema level (% EDEMA) after treatment,[9],about 30%
same,LD50,[6]; im,> 100 mg/kg
"COC(=O)c1cccnc1 [MN, methyl nicotinate]",mode of AChE inhibition,[4],reversible inhibition of AChE
same,IC50,[8],> 100 µM
CN1[C@@H]2CC[C@H]1C[C@@H](OC(=O)C(CO)c1ccccc1)C2 (stereo partly shown) [atropine],effect of pretreatment on IBU-PO-induced hypothermia,[13],partially reverses the hypothermia
3-Dimethylcarbamoyl-1-{7-[2-(4-isobutyl-phenyl)-propionylamino]-heptyl}-pyridinium bromide [IBU-Am-PH],Ki,[4],0.047 µM
same,K′,[4],0.13 min⁻¹
same,ki (bimolecular rate constant),[4],2.8 × 10^6 M^−1m^−1
same,ks × 10^3,[4],27 minutes^−1
"COc1ccc2cc([C@H](C)C(=O)O)ccc2c1 [NAPRO, naproxen]",inhibition at 1 µM,[14],85%
same,inhibition at 1 µM,[15],37%
CNC1(C)C2CCC(C2)C1(C)C (stereo not shown) [mecamylamine],time of maximal IBU-PO-induced hypothermia after pretreatment,[13],60 min
"CC(=O)Oc1ccccc1C(=O)O [ASPIRIN, aspirin]",LD50,[6]; ip,> 100 mg/kg
